Measurements reported in patent publication US12696901B2, “Pesticidally active heterocyclic derivatives with sulfur containing substituents” (SYNGENTA CROP PROTECTION AG, priority 2020, dated 2026).

What was measured:
Format in all cases: in vivo
[1] = tested on: Plutella xylostella (Diamond Back Moth); experiment: Activity against Plutella xylostella (diamond back moth), treated artificial diet; details: 192 h, application rate 200 ppm, eggs, 8 days after infestation, read-out: effect in at least one of the two categories (mortality or growth inhibition)
Summary of the method: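 Artificial diet treated with aqueous test solutions made from 10,000 ppm DMSO stocks, dried, then infested with Plutella eggs. Mortality and growth inhibition scored against untreated samples 8 days after infestation.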

[2] = tested on: Diabrotica balteata (Corn Root Worm); experiment: Activity against Diabrotica balteata (corn root worm), sprayed maize sprouts on agar; details: 96 h, application rate 200 ppm, L2 larvae, 4 days after infestation, read-out: effect in at least one of the two categories (mortality or growth inhibition)
Experimental: Example B2: Activity Against Diabrotica balteata (Corn Root Worm)
Maize sprouts placed onto an agar layer in 24-well microtiter plates were treated with aqueous test solutions prepared from 10,000 ppm DMSO stock solutions by spraying. After drying, the plates were infested with L2 larvae (6 to 10 per well). The samples were assessed for mortality and growth inhibition in comparison to untreated samples 4 days after infestation.

[3] = tested on: Myzus persicae (Green Peach Aphid); experiment: Activity against Myzus persicae (green peach aphid), feeding/contact activity; details: 144 h, application rate 200 ppm, mixed ages, 6 days after infestation
Experimental: Example B6: Activity Against Myzus persicae (Green Peach Aphid) Feeding/Contact Activity
(§1) Sunflower leaf discs were placed onto agar in a 24-well microtiter plate and sprayed with aqueous test solutions prepared from 10,000 ppm DMSO stock solutions. After drying, the leaf discs were infested with an aphid population of mixed ages. The samples were assessed for mortality 6 days after infestation.

[4] = tested on: Myzus persicae (Green Peach Aphid); experiment: Activity against Myzus persicae (green peach aphid), systemic activity; details: 144 h, test rate 24 ppm, roots of pea seedlings in test solution, 6 days
Experimental: Example B8: Activity Against Myzus persicae (Green Peach Aphid) Systemic Activity
Roots of pea seedlings infested with an aphid population of mixed ages were placed directly into aqueous test solutions prepared from 10,000 ppm DMSO stock solutions. The samples were assessed for mortality 6 days after placing seedlings into test solutions.

[5] = tested on: Spodoptera littoralis (Egyptian Cotton Leaf Worm); experiment: Activity against Spodoptera littoralis (Egyptian cotton leaf worm), sprayed cotton leaf discs; details: foliar, 72 h, application rate 200 ppm, L1 larvae, 3 days after infestation
Summary of the method: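 Leaf discs on agar were sprayed with aqueous solutions prepared from 10,000 ppm DMSO stock, dried, then infested with five L1 larvae. Mortality, anti-feeding and growth inhibition were scored against untreated discs 3 days after infestation. Control was recorded when any one category exceeded the untreated sample.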

[6] = tested on: Frankliniella occidentalis (Western Flower Thrips); experiment: Activity against Frankliniella occidentalis (western flower thrips), sprayed sunflower leaf discs; details: foliar, 168 h, application rate 200 ppm, population of mixed ages, 7 days after infestation
Experimental: Example B4: Activity Against Frankliniella occidentalis (Western Flower Thrips)
as §1, with “on” for “onto”, “in” for “in a”, “plates” for “plate”, “drying” for “drying,”, “a Frankliniella” for “an aphid”, “7” for “6”

[7] = tested on: Diabrotica balteata (Corn Root Worm); experiment: Activity against Diabrotica balteata (corn root worm), corn seedlings on filter paper in cups; details: 120 h, application rate 3 ppm, L2 larva, 5 days after treatment, read-out: effect in at least one of the two categories (mortality or growth inhibition)
Experimental: Example B12: Activity Against Diabrotica Balteata (Corn Root Worm)
Three corn seedlings were placed on wetted filter paper in plastic cups, and 3 ml of diluted test solutions were pipetted onto them. The cups were infested with 10 L2 larva and checked for mortality and growth regulation 5 days after treatment.

[8] = tested on: Carpocapsa (Cydia) Pomonella (Codling Moth); experiment: Activity against Carpocapsa (Cydia) pomonella (codling moth), sprayed diet cubes; details: 336 h, application rate 12.5 ppm, L1 larvae, 14 days after infestation, read-out: effect in at least one of the two categories (mortality or growth inhibition)
Summary of the method: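 Paraffin-coated diet cubes were sprayed with test solutions at 12.5 ppm, dried, and infested with one L1 larva each (10 replicates). After incubation at 26–27 °C, mortality and growth inhibition were scored 14 days after infestation.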

[9] = tested on: Bemisia tabaci (Cotton White Fly); experiment: Activity against Bemisia tabaci (cotton white fly), sprayed cotton leaf discs; details: foliar, 144 h, application rate 200 ppm, adult white flies, 6 days after incubation
Experimental: Example B1: Activity Against Bemisia tabaci (Cotton White Fly)
Cotton leaf discs were placed on agar in 24-well microtiter plates and sprayed with aqueous test solutions prepared from 10,000 ppm DMSO stock solutions. After drying the leaf discs were infested with adult white flies. The samples were checked for mortality 6 days after incubation.

[10] = tested on: Tetranychus urticae (Two-Spotted Spider Mite); experiment: Activity against Tetranychus urticae (two-spotted spider mite), sprayed bean leaf discs; details: foliar, 192 h, application rate 200 ppm, mixed population (mobile stages), 8 days after infestation
Experimental: Example B9: Activity Against Tetranychus urticae (Two-Spotted Spider Mite)
Bean leaf discs on agar in 24-well microtiter plates were sprayed with aqueous test solutions prepared from 10,000 ppm DMSO stock solutions. After drying the leaf discs were infested with a mite population of mixed ages. The samples were assessed for mortality on mixed population (mobile stages) 8 days after infestation.

[11] = tested on: Chilo suppressalis (Striped Rice Stemborer); experiment: Activity against Chilo suppressalis (striped rice stemborer), treated artificial diet; details: 144 h, application rate 200 ppm, L2 larvae, 6 days after infestation
Summary of the method: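 Artificial diet treated with aqueous test solutions made from 10,000 ppm DMSO stocks, dried, then infested with L2 larvae, 6-8 per well. Mortality, anti-feeding effect and growth inhibition scored versus untreated samples 6 days after infestation; control counted when any one category exceeds the untreated sample.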

[12] = tested on: Euschistus heros (Neotropical Brown Stink Bug); experiment: Activity against Euschistus heros (neotropical brown stink bug), sprayed soybean leaves; details: 120 h, application rate 200 ppm, N2 nymphs, 5 days after infestation, read-out: effect in at least one of the two categories (mortality or growth inhibition)
Experimental: Example B3: Activity Against Euschistus heros (Neotropical Brown Stink Bug)
Soybean leaves on agar in 24-well microtiter plates were sprayed with aqueous test solutions prepared from 10,000 ppm DMSO stock solutions. After drying the leaves were infested with N2 nymphs. The samples were assessed for mortality and growth inhibition in comparison to untreated samples 5 days after infestation.

CCS(=O)(=O)c1c(N2Cc3ncc(C(F)(F)F)cc3C2=O)nc2cc(OC)ccn12 [Compound P13, 6-(3-ethylsulfonyl-7-methoxy-imidazo [1,2-a]pyridin-2-yl)-3-(trifluoromethyl)-7H-pyrrolo[3,4-b] pyridin-5-one]
≥ 80%: percent effect (mortality or growth inhibition) at 200 ppm [1] | percent effect (mortality or growth inhibition) at 200 ppm [2] | mortality at 200 ppm [3] | mortality at 24 ppm [4] | percent control (mortality, anti-feedant effect or growth inhibition) at 200 ppm [5]

CCS(=O)(=O)c1c(N2Cc3ncc(C(F)(F)F)cc3C2=O)nc2ccc(C(C)(C)C#N)cn12 [Compound P35, 2-[3-ethylsulfonyl-2-[5-oxo-3-(trifluoromethyl)-7H-pyrrolo[3,4-b]pyridin-6-yl]imidazo[1,2-a]pyridin-6-yl]-2-methyl-propanenitrile]
≥ 80%: percent effect (mortality or growth inhibition) at 200 ppm [1] | percent effect (mortality or growth inhibition) at 200 ppm [2] | mortality at 200 ppm [6] | mortality at 200 ppm [3] | percent effect (mortality or growth inhibition) at 3 ppm [7] | percent effect (mortality or growth inhibition) at 12.5 ppm [8] | mortality at 200 ppm [9] | mortality at 200 ppm [10] | percent control (mortality, anti-feedant effect or growth inhibition) at 200 ppm [11] | percent effect (mortality or growth inhibition) at 200 ppm [12] | percent control (mortality, anti-feedant effect or growth inhibition) at 200 ppm [5]

CCS(=O)(=O)c1c(N2Cc3ncc(C(F)(F)F)cc3C2=O)nc2ccc(OC(F)F)cn12 [Compound P10, 6-[6-(difluoromethoxy)-3-ethylsulfonyl-imidazo[1,2-a]pyridin-2-yl]-3-(trifluoromethyl)-7H-pyrrolo[3,4-b]pyridin-5-one]
≥ 80%: percent effect (mortality or growth inhibition) at 200 ppm [1] | percent effect (mortality or growth inhibition) at 200 ppm [2] | mortality at 200 ppm [6] | mortality at 200 ppm [3] | percent effect (mortality or growth inhibition) at 3 ppm [7] | percent effect (mortality or growth inhibition) at 12.5 ppm [8] | mortality at 200 ppm [9] | mortality at 200 ppm [10] | percent control (mortality, anti-feedant effect or growth inhibition) at 200 ppm [11] | percent effect (mortality or growth inhibition) at 200 ppm [12] | percent control (mortality, anti-feedant effect or growth inhibition) at 200 ppm [5]

CCS(=O)(=O)c1c(N2Cc3ncc(C(F)(F)F)cc3C2=O)nc2cc(C)ccn12 [Compound P23, 6-(3-ethylsulfonyl-7-methyl-imidazo[1,2-a]pyridin-2-yl)-3-(trifluoromethyl)-7H-pyrrolo[3,4-b]pyridin-5-one]
≥ 80%: percent effect (mortality or growth inhibition) at 200 ppm [1] | percent effect (mortality or growth inhibition) at 200 ppm [2] | mortality at 200 ppm [3] | percent control (mortality, anti-feedant effect or growth inhibition) at 200 ppm [11] | mortality at 24 ppm [4] | percent control (mortality, anti-feedant effect or growth inhibition) at 200 ppm [5]

CCS(=O)(=O)c1c(N2Cc3ccc(OC(F)(F)F)cc3C2=O)nc2ccc(C(C)(F)F)cn12 [Compound P17, 2-[6-(1,1-difluoroethyl)-3-ethylsulfonyl-imidazo[1,2-a]pyridin-2-yl]-6-(trifluoromethoxy) isoindolin-1-one]
≥ 80%: percent effect (mortality or growth inhibition) at 200 ppm [1] | percent effect (mortality or growth inhibition) at 200 ppm [2] | mortality at 200 ppm [6] | mortality at 200 ppm [3] | percent effect (mortality or growth inhibition) at 3 ppm [7] | percent effect (mortality or growth inhibition) at 12.5 ppm [8] | mortality at 200 ppm [9] | mortality at 200 ppm [10] | percent control (mortality, anti-feedant effect or growth inhibition) at 200 ppm [11] | percent effect (mortality or growth inhibition) at 200 ppm [12] | percent control (mortality, anti-feedant effect or growth inhibition) at 200 ppm [5]

CCS(=O)(=O)c1c(N2Cc3ncc(C(F)(F)F)cc3C2=O)nc2ccc(NC(C)=O)cn12 [Compound P36, N-[3-ethylsulfonyl-2-[5-oxo-3-(trifluoromethyl)-7H-pyrrolo[3,4-b]pyridin-6-yl]imidazo[1,2-a]pyridin-6-yl]acetamide]
≥ 80%: percent effect (mortality or growth inhibition) at 200 ppm [1] | percent effect (mortality or growth inhibition) at 200 ppm [2] | mortality at 200 ppm [3] | percent control (mortality, anti-feedant effect or growth inhibition) at 200 ppm [11] | mortality at 24 ppm [4] | percent control (mortality, anti-feedant effect or growth inhibition) at 200 ppm [5]
